This assay has as its target human Nav1.7 (Homo sapiens (Human), UniProt Q15858). In words: FLIPR or FLIPR TETRA sodium dye assay with KCl and test article pre-incubation. Format: cell-based. The settings on record: read-out: Nav1.7 Activity (μM) FLIPR assay IC50 (μM) ± SEM.
Setting [1] is: recombinant human Nav1.7 in HEK293 cells, CoroNa Green sodium dye, KCl pre-incubation, veratridine and scorpion venom agonists.

Like-named read-outs stand apart in the source and are kept apart here. Bounds are passed on as bounds.

Usually IC50 stands for the midpoint of a concentration-inhibition curve.

human Nav1.7, sequence (Q15858 with tags, fused parts or gaps limits assumed): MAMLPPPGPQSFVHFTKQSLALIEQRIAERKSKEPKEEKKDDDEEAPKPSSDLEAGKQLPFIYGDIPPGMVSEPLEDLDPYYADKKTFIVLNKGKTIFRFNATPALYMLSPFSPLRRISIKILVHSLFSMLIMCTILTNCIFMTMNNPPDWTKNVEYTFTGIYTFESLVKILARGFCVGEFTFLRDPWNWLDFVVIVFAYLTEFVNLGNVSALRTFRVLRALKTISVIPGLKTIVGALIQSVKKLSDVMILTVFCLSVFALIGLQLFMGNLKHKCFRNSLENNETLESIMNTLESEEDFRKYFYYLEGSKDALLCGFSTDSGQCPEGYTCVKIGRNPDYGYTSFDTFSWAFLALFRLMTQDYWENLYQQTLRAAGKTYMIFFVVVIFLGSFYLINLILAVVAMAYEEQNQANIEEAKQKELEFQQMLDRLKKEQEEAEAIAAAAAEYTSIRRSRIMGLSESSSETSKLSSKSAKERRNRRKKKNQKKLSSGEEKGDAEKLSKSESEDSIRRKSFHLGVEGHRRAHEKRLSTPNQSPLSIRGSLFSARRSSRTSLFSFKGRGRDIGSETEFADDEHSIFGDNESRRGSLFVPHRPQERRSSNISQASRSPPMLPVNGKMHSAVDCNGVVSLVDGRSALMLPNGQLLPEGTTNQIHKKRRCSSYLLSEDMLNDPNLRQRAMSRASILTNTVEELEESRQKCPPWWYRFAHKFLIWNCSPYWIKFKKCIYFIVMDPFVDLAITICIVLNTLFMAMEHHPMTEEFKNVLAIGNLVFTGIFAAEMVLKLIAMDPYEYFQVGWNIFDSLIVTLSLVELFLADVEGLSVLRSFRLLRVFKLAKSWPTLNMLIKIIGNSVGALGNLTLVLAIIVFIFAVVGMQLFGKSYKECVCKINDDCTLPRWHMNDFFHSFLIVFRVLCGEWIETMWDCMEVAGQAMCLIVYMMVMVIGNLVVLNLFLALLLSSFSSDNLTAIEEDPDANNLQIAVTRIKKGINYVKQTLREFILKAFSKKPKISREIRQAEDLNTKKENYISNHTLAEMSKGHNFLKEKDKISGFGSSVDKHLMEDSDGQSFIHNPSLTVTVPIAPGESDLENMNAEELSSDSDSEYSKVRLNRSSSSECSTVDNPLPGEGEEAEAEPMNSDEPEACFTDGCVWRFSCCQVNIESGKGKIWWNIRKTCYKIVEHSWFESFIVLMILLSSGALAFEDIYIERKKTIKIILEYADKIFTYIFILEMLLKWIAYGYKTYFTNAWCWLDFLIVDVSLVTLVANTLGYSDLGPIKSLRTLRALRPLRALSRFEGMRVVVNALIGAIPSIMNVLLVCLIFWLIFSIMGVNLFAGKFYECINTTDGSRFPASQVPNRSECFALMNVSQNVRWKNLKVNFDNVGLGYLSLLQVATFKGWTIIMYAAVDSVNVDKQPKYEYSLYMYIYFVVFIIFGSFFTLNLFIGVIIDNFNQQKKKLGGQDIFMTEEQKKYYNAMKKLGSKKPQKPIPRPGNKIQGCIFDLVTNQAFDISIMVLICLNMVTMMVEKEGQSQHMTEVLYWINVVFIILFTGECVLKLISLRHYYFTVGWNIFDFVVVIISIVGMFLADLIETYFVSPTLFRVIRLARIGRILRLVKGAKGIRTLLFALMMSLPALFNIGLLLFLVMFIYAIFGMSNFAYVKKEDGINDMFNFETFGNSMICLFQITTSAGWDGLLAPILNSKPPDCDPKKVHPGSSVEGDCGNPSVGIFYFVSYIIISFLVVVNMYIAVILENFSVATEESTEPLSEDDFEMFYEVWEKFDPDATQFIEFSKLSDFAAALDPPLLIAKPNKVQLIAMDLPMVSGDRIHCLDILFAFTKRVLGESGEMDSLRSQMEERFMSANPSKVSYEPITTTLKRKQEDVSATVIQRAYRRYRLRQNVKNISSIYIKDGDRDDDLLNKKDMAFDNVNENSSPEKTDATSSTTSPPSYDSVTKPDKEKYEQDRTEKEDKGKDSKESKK

On to `Fc1ccc(Oc2ccc(-n3c(C4CCOCC4)nc4ccccc43)cc2)cc1` [Compound 9, 1-(4-(4-fluorophenoxy)phenyl)-2-(tetrahydro-2H-pyran-4-yl)-1H-benzo[d]imidazole], for which, under setting [1], the 50% inhibitory concentration (IC50) turned out to be 0.63 ± 0.05 µM.
On the same count and under the same terms, next, `Cn1cc(Cl)c(-c2nc3ccccc3n2-c2ccc(Oc3ccc(F)cc3)cc2)n1` [Compound 10, 2-(4-chloro-1-methyl-1H-pyrazol-3-yl)-1-(4-(4-fluorophenoxy)phenyl)-1H-benzo[d]imidazole]: 0.313 ± 0.032 µM.
In the case of `Fc1ccc(Oc2ccc(-n3c(-c4c[nH]cn4)nc4ccccc43)cc2)cc1` [Compound 11, 1-(4-(4-fluorophenoxy)phenyl)-2-(1H-imidazol-4-yl)-1H-benzo[d]imidazole], the IC50 is 0.102 ± 0.022 µM.
With `O=C1CC[C@@H](c2nc3ccccc3n2-c2ccc(Oc3ccc(F)cc3)cc2)N1` [Compound 14, (S)-5-(1-(4-(4-fluorophenoxy)-phenyl)-1H-benzo[d]imidazol-2-yl)pyrrolidin-2-one], the IC50 under setting [1] stood at 0.571 ± 0.07 µM.
Same read-out and setting: for `Fc1ccc(Oc2ccc(-n3c(Cc4nnn[nH]4)nc4ccccc43)cc2)cc1` [Compound 15, 2-((1H-tetrazol-5-yl)methyl)-1-(4-(4-fluorophenoxy)phenyl)-1H-benzo[d]imidazole] the value was greater than 20 µM.
As to `Cc1nnc(Cc2nc3ccccc3n2-c2ccc(Oc3ccc(F)cc3)cc2)[nH]1` [Compound 16, 1-(4-(4-fluorophenoxy)phenyl)-2-((5-methyl-4H-1,2,4-triazol-3-yl)methyl)-1H-benzo[d]imidazole], the 50% inhibitory concentration (IC50) amounted to 0.957 ± 0.092 µM.
Turning to `Fc1ccc(Oc2ccc(-n3c(CCN4CCCCC4)nc4ccccc43)cc2)cc1` [Compound 17, 1-(4-(4-fluorophenoxy)phenyl)-2-(2-(piperidin-1-yl)ethyl)-1H-benzo[d]imidazole], the IC50 under setting [1] came out at 0.081 ± 0.009 µM.
Same read-out and setting: next, `NC(=O)CN1CCC(c2nc3ccccc3n2-c2ccc(Oc3ccc(F)cc3)cc2)CC1` [Compound 23, 2-(4-(1-(4-(4-fluorophenoxy)phenyl)-1H-benzo[d]imidazol-2-yl)piperidin-1-yl)acetamide]: 1.49 ± 0.225 µM; `CCN(CC)C(=O)CN1CCC(c2nc3ccccc3n2-c2ccc(Oc3ccc(F)cc3)cc2)CC1` [Compound 24, N,N-diethyl-2-(4-(1-(4-(4-fluorophenoxy)phenyl)-1H-benzo[d]imidazol-2-yl)piperidin-1-yl)acetamide]: 0.516 ± 0.029 µM.
Same read-out and setting: next, `NC(=O)CN1CCC[C@H]1c1nc2ccccc2n1-c1ccc(Oc2ccc(F)cc2)cc1` [Compound 25, (S)-2-(2-(1-(4-(4-fluorophenoxy)phenyl)-1H-benzo[d]imidazol-2-yl)pyrrolidin-1-yl)acetamide]: 1.22 ± 0.035 µM.

The values above are taken from US9828348B2, “Benzimidazole derivatives and use thereof” (priority 2013, dated 2017).
